Laboratory results from DBAASP.
Converted amounts (≈) assume the structure as drawn.

Experiments:
Assay in all cases: ≥ marks a high value that may be exact or a test limit, other limits are often not marked, values filed in µg/mL are converted to µM
Escherichia coli UB1005 = tested on: Escherichia coli UB1005
[1] = tested on: Candida parapsilosis CGMCC 2.3989
[2] = tested on: Pseudomonas aeruginosa ATCC 27853
[3] = tested on: Staphylococcus epidermidis ATCC 12228
[4] = tested on: Staphylococcus aureus ATCC 25923
Escherichia coli 078 = tested on: Escherichia coli 078
[5] = tested on: Salmonella enterica subsp. enterica serovar Typhimurium ATCC 14028
[6] = tested on: Salmonella enterica subsp. enterica serovar Pullorum ATCC 7913
[7] = tested on: Candida albicans CGMCC 2.2086
Escherichia coli K88 = tested on: Escherichia coli K88
[8] = tested on: Salmonella enterica subsp. enterica serovar Typhimurium C77-31
Escherichia coli K99 = tested on: Escherichia coli K99
[9] = tested on: Staphylococcus aureus ATCC 29213
[10] = tested on: Staphylococcus aureus ATCC 43300
[11] = tested on: Candida tropicalis CGMCC 2.1975
[12] = tested on: Escherichia coli NCTC 10418
[13] = tested on: Klebsiella pneumoniae ATCC 43816
[14] = tested on: Staphylococcus aureus NCTC 12493
[15] = tested on: Candida albicans NCYC 1467
[16] = tested on: Staphylococcus aureus NCTC 10788
[17] = tested on: Enterococcus faecalis NCTC 12697
[18] = tested on: Enterococcus faecalis ATCC 29212
[19] = tested on: Pseudomonas aeruginosa PAO1
[20] = tested on: Salmonella enterica subsp. enterica serovar Choleraesuis CVCC 503
Candida albicans = tested on: Candida albicans

MIC (Escherichia coli UB1005) [µM]	MIC [1] [µM]	MIC [2] [µM]	MIC [3] [µM]	MIC [4] [µM]	MIC [5] [µM]	MIC [8] [µM]	MIC [9] [µM]	MIC [10] [µM]	MIC [11] [µM]	MIC [12] [µM]	MIC [13] [µM]	MIC [14] [µM]	MIC [15] [µM]	MIC [16] [µM]	MIC [17] [µM]	SMILES	other results
16 (≈ 22.2 µg/mL)	≥ 128	> 128	> 128	> 128	32 (≈ 44.3 µg/mL)	≥ 32	> 128	> 128	≥ 128	–	–	–	–	–	–	CC[C@H](C)[C@H](NC(=O)[C@H](CCCN=C(N)N)NC(=O)[C@H](C)NC(=O)[C@H](C)N)C(=O)N[C@H](C(=O)N[C@@H](CC(C)C)C(=O)N[C@@H](CCCN=C(N)N)C(=O)N[C@@H](CC(N)=O)C(=O)N[C@@H](CCCN=C(N)N)C(=O)N[C@@H](Cc1ccccc1)C(=O)N[C@@H](CCCN=C(N)N)C(N)=O)[C@@H](C)CC [AARIILRNRFR]	MIC (Escherichia coli 078): 16 µM (≈ 22.2 µg/mL); MIC [6]: 16 µM (≈ 22.2 µg/mL); MIC [7]: ≥ 128 µM; MIC (Escherichia coli K88): ≥ 32 µM; MIC (Escherichia coli K99): 16 µM (≈ 22.2 µg/mL)
–	–	32 (≈ 82.2 µg/mL)	–	–	–	–	–	–	–	8 (≈ 20.5 µg/mL)	≥ 128	16 (≈ 41.1 µg/mL)	16 (≈ 41.1 µg/mL)	8 (≈ 20.5 µg/mL)	8 (≈ 20.5 µg/mL)	CC(C)C[C@H](NC(=O)[C@H](CCC(N)=O)NC(=O)[C@H](CCC(N)=O)NC(=O)[C@H](C)NC(=O)CNC(=O)[C@H](C)NC(=O)[C@H](CCCCN)NC(=O)CNC(=O)[C@@H](NC(=O)[C@H](CCC(N)=O)NC(=O)[C@H](CCCCN)NC(=O)[C@H](C)NC(=O)[C@H](CC(C)C)NC(=O)[C@H](Cc1ccc(O)cc1)NC(=O)[C@H](CCCCN)NC(=O)[C@H](C)NC(=O)CNC(=O)[C@H](C)NC(=O)[C@H](CCCCN)NC(=O)[C@H](Cc1ccccc1)NC(=O)[C@H](CC(C)C)NC(=O)[C@H](CO)NC(=O)[C@H](CO)NC(=O)[C@H](Cc1ccccc1)NC(=O)CN)C(C)C)C(N)=O [GFSSLFKAGAKYLAKQVGKAGAQQL]	–
–	–	64 (≈ 121 µg/mL)	–	–	–	–	–	–	–	16 (≈ 30.4 µg/mL)	≥ 32	8 (≈ 15.2 µg/mL)	16 (≈ 30.4 µg/mL)	8 (≈ 15.2 µg/mL)	≥ 256	CC[C@H](C)[C@@H]1NC(=O)[C@H](C)NC(=O)[C@@H](NC(=O)[C@H](Cc2ccccc2)NC(=O)[C@H](Cc2c[nH]c3ccccc23)NC(=O)[C@H](CCCCN)NC(=O)[C@H](Cc2c[nH]c3ccccc23)NC(=O)[C@@H]2CCCN2C(=O)[C@H](CC(C)C)NC(=O)[C@H](Cc2ccccc2)NC(=O)[C@@H](N)CCCCN)CSSC[C@@H](C(=O)O)NC(=O)[C@H](CCCCN)NC(=O)[C@H](CCCCN)NC(=O)[C@H]([C@@H](C)O)NC1=O [KFLPWKWFCAITKKC]	–
2 (≈ 4.91 µg/mL)	8 (≈ 19.7 µg/mL)	16 (≈ 39.3 µg/mL)	> 64	> 64	32 (≈ 78.6 µg/mL)	≥ 64	> 64	32 (≈ 78.6 µg/mL)	2 (≈ 4.91 µg/mL)	–	–	–	–	–	–	CC(C)C[C@H](NC(=O)[C@H](CCCN=C(N)N)NC(=O)[C@H](C)NC(=O)[C@H](CS)NC(=O)[C@H](CC(C)C)NC(=O)[C@H](CCCCN)NC(=O)[C@H](CCCCN)NC(=O)[C@H](CC(C)C)NC(=O)[C@H](CCCN=C(N)N)NC(=O)[C@H](C)NC(=O)[C@H](CS)NC(=O)[C@H](CC(C)C)NC(=O)[C@H](CCCCN)NC(=O)[C@H](CCCCN)NC(=O)[C@@H](N)CC(C)C)C(=O)N[C@@H](CCCCN)C(=O)N[C@@H](CCCCN)C(=O)N[C@@H](CC(C)C)C(=O)N[C@@H](CS)C(=O)N[C@@H](C)C(=O)N[C@@H](CCCN=C(N)N)C(N)=O [LKKLCARLKKLCARLKKLCAR]	MIC [18]: > 64 µM; MIC [19]: 16 µM (≈ 39.3 µg/mL); MIC [20]: 8 µM (≈ 19.7 µg/mL); MIC (Candida albicans): 5.66 µM (≈ 13.9 µg/mL)
